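All cell lines were grown in 96-well plates and treated with compound for 48 hours. GI50: concentration for 50% inhibition of growth.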 Active and inactive are the calls of the source. Cut-off read from the data, not from the text of the source: active = GI50 up to about 1.1 µM and inactive = higher.
Key:
Test in all cases: NCI anticancer screen, dose series, 48 h
NCI-H522 = system: NCI-H522
HCT-15 = system: HCT-15
CCRF-CEM = system: CCRF-CEM
786-0 = system: 786-0
SF-295 = system: SF-295
DMS-114 = system: DMS-114
SK-MEL-2 = system: SK-MEL-2
LOX IMVI = system: LOX IMVI
SN12C = system: SN12C
DLD-1 = system: DLD-1
RPMI-8226 = system: RPMI-8226
A498 = system: A498
OVCAR-3 = system: OVCAR-3
TK-10 = system: TK-10
SR = system: SR
HCC 2998 = system: HCC 2998
ACHN = system: ACHN
A549 = system: A549
UACC-257 = system: UACC-257
CAKI-1 = system: CAKI-1
SF-268 = system: SF-268
SK-MEL-5 = system: SK-MEL-5
NCI-H460 = system: NCI-H460
SK-MEL-28 = system: SK-MEL-28
SNB-19 = system: SNB-19
M19-MEL = system: M19-MEL
NCI-H23 = system: NCI-H23
HOP-18 = system: HOP-18
XF498 = system: XF498
Malme-3M = system: Malme-3M
KM12 = system: KM12
HT-29 = system: HT-29
HOP-62 = system: HOP-62
LXFL 529 = system: LXFL 529
SK-OV-3 = system: SK-OV-3
HCT-116 = system: HCT-116
M14 = system: M14
SW-620 = system: SW-620
UACC-62 = system: UACC-62
U-251 = system: U-251
RXF 631 = system: RXF 631
OVCAR-8 = system: OVCAR-8
SF-539 = system: SF-539
MOLT-4 = system: MOLT-4
SNB-78 = system: SNB-78
COLO 205 = system: COLO 205
HOP-92 = system: HOP-92
IGROV-1 = system: IGROV-1
SNB-75 = system: SNB-75
RXF 393 = system: RXF 393
UO-31 = system: UO-31
HL-60 = system: HL-60
EKVX = system: EKVX
KM-20L2 = system: KM-20L2
DMS-273 = system: DMS-273
K562 = system: K562
OVCAR-5 = system: OVCAR-5
NCI-H226 = system: NCI-H226
OVCAR-4 = system: OVCAR-4

For `COc1ccc(/C=C/C(=O)c2sc(-n3nc(-c4ccccc4)cc3-c3ccccc3)nc2C)cc1`, the GI50 (NCI-H522) was 63.1 µM (inactive), the GI50 (HCT-15) was 75.2 µM and the GI50 (CCRF-CEM) was > 10 µM (inactive). For the same compound, the GI50 (786-0) was > 10 µM (inactive), the GI50 (SF-295) was > 10 µM (inactive) and the GI50 (DMS-114) was 31.3 µM (inactive). For the same compound, the GI50 (SK-MEL-2) was > 10 µM (inactive), the GI50 (LOX IMVI) was > 10 µM (inactive) and the GI50 (SN12C) was 75.9 µM (inactive). The GI50 (DLD-1) was > 10 µM (inactive), the GI50 (RPMI-8226) was 39.7 µM (inactive) and the GI50 (A498) was > 10 µM (inactive). For the same compound, the GI50 (OVCAR-3) was 62.5 µM (inactive), the GI50 (TK-10) was > 10 µM (inactive) and the GI50 (SR) was > 10 µM (inactive). For the same compound, the GI50 (HCC 2998) was > 10 µM (inactive), the GI50 (ACHN) was > 10 µM (inactive) and the GI50 (A549) was > 10 µM (inactive). The GI50 (UACC-257) was 79.1 µM (inactive), the GI50 (CAKI-1) was 55.2 µM (inactive) and the GI50 (SF-268) was > 10 µM (inactive). The GI50 (SK-MEL-5) was 52.1 µM (inactive), the GI50 (NCI-H460) was > 10 µM (inactive) and the GI50 (SK-MEL-28) was > 10 µM (inactive). The GI50 (SNB-19) was > 10 µM (inactive), the GI50 (M19-MEL) was > 10 µM (inactive) and the GI50 (NCI-H23) was > 10 µM (inactive). For the same compound, the GI50 (HOP-18) was > 10 µM (inactive), the GI50 (XF498) was 33.7 µM (inactive) and the GI50 (Malme-3M) was > 10 µM (inactive). The GI50 (KM12) was 76.4 µM (inactive), the GI50 (HT-29) was 30.5 µM (inactive) and the GI50 (HOP-62) was > 10 µM (inactive). For the same compound, the GI50 (LXFL 529) was > 10 µM (inactive), the GI50 (SK-OV-3) was > 10 µM (inactive) and the GI50 (HCT-116) was > 10 µM (inactive). The GI50 (M14) was > 10 µM (inactive), the GI50 (SW-620) was > 10 µM (inactive) and the GI50 (UACC-62) was > 10 µM (inactive). For the same compound, the GI50 (U-251) was 62.2 µM (inactive), the GI50 (RXF 631) was > 10 µM (inactive) and the GI50 (OVCAR-8) was > 10 µM (inactive). For the same compound, the GI50 (SF-539) was > 10 µM (inactive), the GI50 (MOLT-4) was 56.6 µM (inactive) and the GI50 (SNB-78) was > 10 µM (inactive). The GI50 (COLO 205) was > 10 µM (inactive), the GI50 (HOP-92) was > 10 µM (inactive) and the GI50 (IGROV-1) was > 10 µM (inactive). For the same compound, the GI50 (SNB-75) was 8.43 µM (inactive), the GI50 (RXF 393) was > 10 µM (inactive) and the GI50 (UO-31) was 31.6 µM (inactive). For the same compound, the GI50 (HL-60) was > 10 µM (inactive), the GI50 (EKVX) was 6.25 µM (inactive) and the GI50 (KM-20L2) was 77.4 µM (inactive). The GI50 (DMS-273) was > 10 µM (inactive), the GI50 (K562) was 52.2 µM (inactive) and the GI50 (OVCAR-5) was > 10 µM (inactive). The GI50 (NCI-H226) was > 10 µM (inactive) and the GI50 (OVCAR-4) was 43.6 µM (inactive).

Source: ChEMBL document CHEMBL1201862, “PubChem BioAssay data set” (2004)
